According to ChEMBL document CHEMBL4706488, “Design, synthesis and biological evaluation of 2-amino-4-(1,2,4-triazol)pyridine derivatives as potent EGFR inhibitors to overcome TKI-resistance” (Eur J Med Chem, 2020):
Activity calls are given as the source filed them. No cut-off for these calls is given here.

Columns and labels:
[1] = biological target: Epidermal growth factor receptor (Homo sapiens, UniProt P00533, L858R/T790M); assay: biochemical; type: cell-based, Sf21
[2] = test system: A-431; assay: cells; type: functional, cell-based; conditions: Homo sapiens;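 note: antiproliferative test in A-431 cells carrying wild-type EGFR, with cell growth inhibition read by MTT assay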
Description: Antiproliferative activity against human A-431 cells harboring wild type EGFR assessed as inhibition of cell growth by MTT assay

[3] = test system: NCI-H1975; assay: cells; type: functional, cell-based; conditions: Homo sapiens
[4] = test system: U-87 MG; assay: cells; type: functional, cell-based, U-87MG ATCC; conditions: Homo sapiens;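 note: antiproliferative effect on U-87 MG cells carrying wild-type EGFR, growth inhibition read out by MTT assay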
Description: Antiproliferative activity against human U-87MG cells harboring wild type EGFR assessed as inhibition of cell growth by MTT assay

[5] = cells; type: functional, tissue-based; conditions: Homo sapiens, U87MG Human EGFR vIII
Description: Antiproliferative activity against human U87MG Human EGFR vIII cells overexpressing EGFRvIII mutant assessed as inhibition of cell growth by MTT assay

[6] = biological target: Epidermal growth factor receptor (Homo sapiens, UniProt P00533); assay: biochemical; type: cell-based, Sf21
Description: Inhibition of wild type N-terminal GST-tagged human EGFR cytoplasmic domain (669 to 1210 residues) expressed in baculovirus infected Sf21 cells using biotin-labeled TK substrate preincubated for 30 mins followed by substrate and ATP addition at Km concentration and further incubated for 20 mins by HTRF assay

[7] = Potency index, ratio of osimertinib IC50 to test compound IC50 for antiproliferative activity against human U87MG Human EGFR vIII cells overexpressing EGFRvIII mutant assessed as inhibition of cell proliferation by MTT assay; type: functional
[8] = Potency index, ratio of lazertinib IC50 to test compound IC50 for antiproliferative activity against human U87MG Human EGFR vIII cells overexpressing EGFRvIII mutant assessed as inhibition of cell proliferation by MTT assay; type: functional
[9] = test system: NCI-H1975; assay: Induction of apoptosis in human NCI-H1975 cells assessed as live cells at 5 uM by annexinV-FITC/propidium iodide staining based flow cytometry analysis (reference value: 98.6 %); type: functional
[10] = test system: NCI-H1975; assay: Induction of apoptosis in human NCI-H1975 cells assessed as early apoptotic cells at 5 uM by annexinV-FITC/propidium iodide staining based flow cytometry analysis (reference value: 0.53 %); type: functional
[11] = test system: NCI-H1975; assay: Induction of apoptosis in human NCI-H1975 cells assessed as late apoptotic cells at 5 uM by annexinV-FITC/propidium iodide staining based flow cytometry analysis (reference value: 0.42 %); type: functional
[12] = test system: NCI-H1975; assay: Induction of apoptosis in human NCI-H1975 cells assessed as necrotic cells at 5 uM by annexinV-FITC/propidium iodide staining based flow cytometry analysis (reference value: 0.44 %); type: functional
[13] = test system: NCI-H1975; assay: Induction of apoptosis in human NCI-H1975 cells assessed as live cells at 10 uM by annexinV-FITC/propidium iodide staining based flow cytometry analysis (reference value: 98.6 %); type: functional
[14] = test system: NCI-H1975; assay: Induction of apoptosis in human NCI-H1975 cells assessed as early apoptotic cells at 10 uM by annexinV-FITC/propidium iodide staining based flow cytometry analysis (reference value: 0.53 %); type: functional
[15] = test system: NCI-H1975; assay: Induction of apoptosis in human NCI-H1975 cells assessed as late apoptotic cells at 10 uM by annexinV-FITC/propidium iodide staining based flow cytometry analysis (reference value: 0.42 %); type: functional
[16] = test system: NCI-H1975; assay: Induction of apoptosis in human NCI-H1975 cells assessed as necrotic cells at 10 uM by annexinV-FITC/propidium iodide staining based flow cytometry analysis (reference value: 0.44 %); type: functional
[17] = test system: NCI-H1975; assay: Induction of apoptosis in human NCI-H1975 cells assessed as live cells at 20 uM by annexinV-FITC/propidium iodide staining based flow cytometry analysis (reference value: 98.6 %); type: functional
[18] = test system: NCI-H1975; assay: Induction of apoptosis in human NCI-H1975 cells assessed as early apoptotic cells at 20 uM by annexinV-FITC/propidium iodide staining based flow cytometry analysis (reference value: 0.53 %); type: functional
[19] = test system: NCI-H1975; assay: Induction of apoptosis in human NCI-H1975 cells assessed as late apoptotic cells at 20 uM by annexinV-FITC/propidium iodide staining based flow cytometry analysis (reference value: 0.42 %); type: functional
[20] = test system: NCI-H1975; assay: Induction of apoptosis in human NCI-H1975 cells assessed as necrotic cells at 20 uM by annexinV-FITC/propidium iodide staining based flow cytometry analysis (reference value: 0.44 %); type: functional
[21] = test system: U87MG Human EGFR vIII; assay: Induction of apoptosis in human U87MG Human EGFR vIII cells by annexinV-FITC/propidium iodide staining based flow cytometry analysis; type: functional, cell-based
[22] = biological target: ALK tyrosine kinase receptor (Homo sapiens) (UniProt Q9UM73); assay: Inhibition of human recombinant GST-tagged ALK cytoplasmic domain (1058-1620 residues) expressed in baculovirus expression system at 1 uM by Z-lyte assay relative to control
[23] = biological target: Aurora kinase B (Homo sapiens) (UniProt Q96GD4); assay: Inhibition of recombinant full length human His-tagged AURKB expressed in baculovirus expression system at 1 uM by Z-lyte assay relative to control
[24] = biological target: Serine/threonine-protein kinase B-raf (Homo sapiens) (UniProt P15056); assay: Inhibition of recombinant full length human GST-tagged BRAF expressed in baculovirus expression system at 1 uM by Z-lyte assay relative to control
[25] = biological target: Tyrosine-protein kinase BTK (Homo sapiens) (UniProt Q06187); assay: Inhibition of recombinant full length human His-tagged BTK expressed in baculovirus expression system at 1 uM by Z-lyte assay relative to control
[26] = biological target: Macrophage colony-stimulating factor 1 receptor (Homo sapiens) (UniProt P07333); assay: Inhibition of recombinant human His-tagged CSF1R (538 to 910 residues) expressed in baculovirus expression system at 1 uM by Z-lyte assay relative to control
[27] = biological target: Receptor tyrosine-protein kinase erbB-2 (Homo sapiens) (UniProt P04626); assay: Inhibition of human recombinant His-tagged HER2 (676 to 1255 residues) expressed in baculovirus expression system at 1 uM by Z-lyte assay relative to control
[28] = biological target: Receptor tyrosine-protein kinase erbB-4 (Homo sapiens) (UniProt Q15303); assay: Inhibition of N-terminal GST-tagged human recombinant HER4 (708 to 993 residues) expressed in baculovirus expression system at 1 uM by Z-lyte assay relative to control
[29] = biological target: Tyrosine-protein kinase Fyn (Homo sapiens) (UniProt P06241); assay: Inhibition of recombinant full length human C-terminal His-tagged FYN expressed in baculovirus expression system at 1 uM by Z-lyte assay relative to control
[30] = biological target: Insulin-like growth factor 1 receptor (Homo sapiens) (UniProt P08069); assay: Inhibition of recombinant human C-terminal His-tagged IGF1R (960 to 1397 residues) expressed in baculovirus expression system at 1 uM by Z-lyte assay relative to control
[31] = biological target: Tyrosine-protein kinase JAK2 (Homo sapiens) (UniProt O60674); assay: Inhibition of recombinant human GST-tagged JAK2 (809 to 1162 residues) expressed in baculovirus expression system at 1 uM by Z-lyte assay relative to control
[32] = biological target: Vascular endothelial growth factor receptor 2 (Homo sapiens) (UniProt P35968); assay: Inhibition of recombinant human His-tagged VEGFR2 (789 to 1356 residues) expressed in baculovirus expression system at 1 uM by Z-lyte assay relative to control
[33] = biological target: Tyrosine-protein kinase Lck (Homo sapiens) (UniProt P06239); assay: Inhibition of recombinant human LCK at 1 uM by Z-lyte assay relative to control
[34] = biological target: Mitogen-activated protein kinase 9 (Homo sapiens) (UniProt P45984); assay: Inhibition of recombinant full length human His-tagged MAPK9 expressed in baculovirus expression system at 1 uM by Z-lyte assay relative to control
[35] = biological target: Hepatocyte growth factor receptor (Homo sapiens) (UniProt P08581); assay: Inhibition of recombinant human N-terminal His-tagged cMET (956 to 1390 residues) expressed in baculovirus expression system at 1 uM by Z-lyte assay relative to control
[36] = biological target: BDNF/NT-3 growth factors receptor (Homo sapiens) (UniProt Q16620); assay: Inhibition of recombinant human His-tagged NTRK2 (526 to 638 residues) expressed in baculovirus expression system at 1 uM by Z-lyte assay relative to control
Chain of BDNF/NT-3 growth factors receptor (Homo sapiens) (Q16620 32-822 limits assumed): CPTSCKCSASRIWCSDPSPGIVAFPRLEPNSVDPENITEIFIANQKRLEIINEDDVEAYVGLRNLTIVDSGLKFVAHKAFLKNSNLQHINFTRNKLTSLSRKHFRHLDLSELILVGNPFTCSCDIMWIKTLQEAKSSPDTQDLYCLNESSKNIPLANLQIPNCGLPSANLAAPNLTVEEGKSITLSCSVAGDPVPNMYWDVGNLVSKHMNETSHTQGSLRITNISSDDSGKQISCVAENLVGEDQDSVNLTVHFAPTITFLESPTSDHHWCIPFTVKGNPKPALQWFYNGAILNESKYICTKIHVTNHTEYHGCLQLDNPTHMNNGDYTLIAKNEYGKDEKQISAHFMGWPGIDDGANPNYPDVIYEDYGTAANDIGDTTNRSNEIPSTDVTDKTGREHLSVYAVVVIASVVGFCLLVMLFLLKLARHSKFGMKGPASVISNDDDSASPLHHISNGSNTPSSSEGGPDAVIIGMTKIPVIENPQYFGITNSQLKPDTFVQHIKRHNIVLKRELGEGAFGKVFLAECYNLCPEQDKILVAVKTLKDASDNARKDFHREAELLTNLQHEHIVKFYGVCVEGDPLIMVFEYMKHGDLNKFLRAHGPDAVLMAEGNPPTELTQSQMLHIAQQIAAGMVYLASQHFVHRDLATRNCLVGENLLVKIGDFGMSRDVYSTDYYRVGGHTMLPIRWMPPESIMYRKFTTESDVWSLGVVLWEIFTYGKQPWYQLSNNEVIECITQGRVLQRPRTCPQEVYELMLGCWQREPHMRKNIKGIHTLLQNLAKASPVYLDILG

Chain of Epidermal growth factor receptor (Homo sapiens, UniProt P00533, L858R/T790M) (P00533 25-1210 T790M/L858R limits assumed): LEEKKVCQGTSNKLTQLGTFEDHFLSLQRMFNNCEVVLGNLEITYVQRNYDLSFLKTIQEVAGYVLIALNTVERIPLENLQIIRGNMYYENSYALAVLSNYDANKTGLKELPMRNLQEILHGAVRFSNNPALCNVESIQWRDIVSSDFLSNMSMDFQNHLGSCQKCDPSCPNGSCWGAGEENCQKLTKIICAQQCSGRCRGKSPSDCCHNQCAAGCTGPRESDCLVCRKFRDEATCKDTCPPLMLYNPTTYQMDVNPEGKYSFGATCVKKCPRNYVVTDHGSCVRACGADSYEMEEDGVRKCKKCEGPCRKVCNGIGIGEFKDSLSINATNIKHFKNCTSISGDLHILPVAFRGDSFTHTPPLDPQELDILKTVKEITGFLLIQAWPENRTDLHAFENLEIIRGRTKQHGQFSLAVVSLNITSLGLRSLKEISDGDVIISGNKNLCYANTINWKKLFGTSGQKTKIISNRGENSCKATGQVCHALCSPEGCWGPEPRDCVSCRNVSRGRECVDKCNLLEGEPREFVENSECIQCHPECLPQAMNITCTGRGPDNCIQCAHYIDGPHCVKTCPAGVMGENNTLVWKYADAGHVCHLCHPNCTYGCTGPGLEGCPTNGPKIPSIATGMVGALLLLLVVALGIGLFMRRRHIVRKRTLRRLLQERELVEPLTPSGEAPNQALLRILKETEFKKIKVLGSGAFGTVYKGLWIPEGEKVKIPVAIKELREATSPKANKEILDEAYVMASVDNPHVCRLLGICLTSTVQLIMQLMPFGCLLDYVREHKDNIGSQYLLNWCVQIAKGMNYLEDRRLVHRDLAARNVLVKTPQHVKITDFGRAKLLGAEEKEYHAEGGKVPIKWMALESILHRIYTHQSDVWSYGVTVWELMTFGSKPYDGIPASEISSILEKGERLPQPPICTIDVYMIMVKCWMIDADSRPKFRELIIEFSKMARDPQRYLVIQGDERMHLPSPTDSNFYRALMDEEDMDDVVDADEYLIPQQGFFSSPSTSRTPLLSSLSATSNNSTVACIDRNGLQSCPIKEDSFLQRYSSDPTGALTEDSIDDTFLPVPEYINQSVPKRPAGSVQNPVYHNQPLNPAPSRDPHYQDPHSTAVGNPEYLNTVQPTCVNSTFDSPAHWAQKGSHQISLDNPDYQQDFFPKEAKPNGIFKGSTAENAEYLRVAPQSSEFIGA
Chain of Epidermal growth factor receptor (Homo sapiens, UniProt P00533) (P00533 whole entry): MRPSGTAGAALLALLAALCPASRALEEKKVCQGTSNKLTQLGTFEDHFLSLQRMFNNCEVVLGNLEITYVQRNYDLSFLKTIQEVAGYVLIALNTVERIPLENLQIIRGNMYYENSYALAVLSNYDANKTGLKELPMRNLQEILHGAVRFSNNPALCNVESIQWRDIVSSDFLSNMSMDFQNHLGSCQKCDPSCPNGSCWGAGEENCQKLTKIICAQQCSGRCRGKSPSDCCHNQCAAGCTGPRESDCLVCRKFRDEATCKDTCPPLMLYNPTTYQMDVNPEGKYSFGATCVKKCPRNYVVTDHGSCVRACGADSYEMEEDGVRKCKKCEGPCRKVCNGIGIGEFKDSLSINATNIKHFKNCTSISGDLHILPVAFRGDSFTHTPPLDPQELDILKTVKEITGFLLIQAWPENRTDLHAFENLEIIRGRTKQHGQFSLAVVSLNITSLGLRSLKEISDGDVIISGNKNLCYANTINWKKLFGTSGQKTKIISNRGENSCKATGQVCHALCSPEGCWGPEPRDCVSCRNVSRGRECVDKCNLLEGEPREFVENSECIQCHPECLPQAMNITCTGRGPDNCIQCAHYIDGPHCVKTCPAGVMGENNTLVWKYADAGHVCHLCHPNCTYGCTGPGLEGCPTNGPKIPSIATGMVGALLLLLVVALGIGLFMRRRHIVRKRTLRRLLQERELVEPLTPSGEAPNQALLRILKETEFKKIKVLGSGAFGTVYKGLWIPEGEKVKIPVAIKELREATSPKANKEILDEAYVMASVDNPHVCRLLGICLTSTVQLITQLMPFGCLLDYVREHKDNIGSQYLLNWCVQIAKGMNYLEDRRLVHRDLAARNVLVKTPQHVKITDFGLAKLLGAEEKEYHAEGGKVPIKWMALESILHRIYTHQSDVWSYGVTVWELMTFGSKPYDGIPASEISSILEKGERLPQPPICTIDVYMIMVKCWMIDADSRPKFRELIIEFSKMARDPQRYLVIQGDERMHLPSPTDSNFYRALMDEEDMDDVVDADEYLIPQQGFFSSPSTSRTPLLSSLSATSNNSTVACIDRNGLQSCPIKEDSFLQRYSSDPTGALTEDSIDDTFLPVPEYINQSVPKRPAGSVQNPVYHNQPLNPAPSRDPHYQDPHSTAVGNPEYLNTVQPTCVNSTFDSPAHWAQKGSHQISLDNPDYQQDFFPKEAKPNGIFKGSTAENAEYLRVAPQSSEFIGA
Chain of Tyrosine-protein kinase Lck (Homo sapiens) (P06239 2-509 limits assumed): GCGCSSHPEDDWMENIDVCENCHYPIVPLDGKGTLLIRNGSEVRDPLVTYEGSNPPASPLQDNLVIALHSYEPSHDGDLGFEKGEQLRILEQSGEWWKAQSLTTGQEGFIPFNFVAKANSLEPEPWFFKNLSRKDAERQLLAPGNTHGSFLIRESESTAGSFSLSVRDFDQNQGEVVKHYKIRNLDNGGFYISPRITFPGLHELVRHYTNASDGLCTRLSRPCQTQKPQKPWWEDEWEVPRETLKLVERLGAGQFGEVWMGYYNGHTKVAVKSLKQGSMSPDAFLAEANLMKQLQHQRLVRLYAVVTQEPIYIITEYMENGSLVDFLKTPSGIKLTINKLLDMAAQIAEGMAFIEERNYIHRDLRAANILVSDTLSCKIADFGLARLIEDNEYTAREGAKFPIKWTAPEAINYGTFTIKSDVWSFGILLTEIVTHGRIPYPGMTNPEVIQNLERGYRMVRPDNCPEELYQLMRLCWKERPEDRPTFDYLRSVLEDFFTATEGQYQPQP
Chain of Hepatocyte growth factor receptor (Homo sapiens) (P08581 whole entry, the tested form may be a part): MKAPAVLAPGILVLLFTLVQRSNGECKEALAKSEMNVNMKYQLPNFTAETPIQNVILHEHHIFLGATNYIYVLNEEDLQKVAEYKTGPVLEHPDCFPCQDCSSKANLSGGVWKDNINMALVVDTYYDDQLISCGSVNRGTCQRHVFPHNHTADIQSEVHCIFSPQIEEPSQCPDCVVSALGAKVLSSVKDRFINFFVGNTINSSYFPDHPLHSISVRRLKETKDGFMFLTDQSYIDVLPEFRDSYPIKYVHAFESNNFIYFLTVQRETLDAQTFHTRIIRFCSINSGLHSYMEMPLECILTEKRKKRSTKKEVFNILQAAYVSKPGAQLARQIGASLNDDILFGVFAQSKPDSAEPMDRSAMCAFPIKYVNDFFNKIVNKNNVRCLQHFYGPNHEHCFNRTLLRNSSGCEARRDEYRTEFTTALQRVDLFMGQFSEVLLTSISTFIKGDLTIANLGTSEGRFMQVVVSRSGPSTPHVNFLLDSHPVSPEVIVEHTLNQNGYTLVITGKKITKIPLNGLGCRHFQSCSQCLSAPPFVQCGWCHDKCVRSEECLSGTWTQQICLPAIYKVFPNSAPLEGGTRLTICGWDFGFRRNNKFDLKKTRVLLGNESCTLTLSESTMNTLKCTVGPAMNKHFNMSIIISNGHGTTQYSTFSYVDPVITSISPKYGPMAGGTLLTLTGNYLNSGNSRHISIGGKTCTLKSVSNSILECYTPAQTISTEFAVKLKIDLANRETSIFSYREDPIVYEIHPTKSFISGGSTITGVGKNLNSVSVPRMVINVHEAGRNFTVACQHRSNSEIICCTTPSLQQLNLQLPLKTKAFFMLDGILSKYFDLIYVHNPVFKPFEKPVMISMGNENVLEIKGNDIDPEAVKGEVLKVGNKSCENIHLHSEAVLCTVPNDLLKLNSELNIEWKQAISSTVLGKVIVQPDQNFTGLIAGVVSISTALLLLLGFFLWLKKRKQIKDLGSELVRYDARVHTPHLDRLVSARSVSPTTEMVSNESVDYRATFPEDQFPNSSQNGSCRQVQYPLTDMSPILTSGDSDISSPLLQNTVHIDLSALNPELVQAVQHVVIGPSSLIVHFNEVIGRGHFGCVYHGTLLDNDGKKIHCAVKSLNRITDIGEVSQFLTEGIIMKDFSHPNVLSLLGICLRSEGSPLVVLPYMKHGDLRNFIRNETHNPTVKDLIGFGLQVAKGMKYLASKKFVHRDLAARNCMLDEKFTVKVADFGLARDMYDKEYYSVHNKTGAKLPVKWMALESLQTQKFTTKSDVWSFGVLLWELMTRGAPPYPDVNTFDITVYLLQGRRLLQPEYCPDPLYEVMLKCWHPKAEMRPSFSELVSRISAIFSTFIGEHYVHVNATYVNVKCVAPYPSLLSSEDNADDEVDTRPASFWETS

C=CC(=O)Nc1cccc(Nc2cc(-n3c(SC)nnc3-c3ccc(F)cc3)ccn2)c1
IC50 [1]: 0.234 µM
IC50 [2]: 6.9 µM
IC50 [3]: 10.7 µM
IC50 [4]: 3.5 µM
IC50 [5]: 13 µM

COc1cc(N(C)CCN(C)C)ccc1Nc1cc(-n2c(SC)nnc2-c2ccc(F)cc2)ccn1
IC50 [2]: > 100 µM
IC50 [3]: 41.9 µM
IC50 [4]: 19.2 µM
IC50 [5]: > 100 µM

C=CC(=O)Nc1cc(Nc2nccc(-c3cn(C)c4ccccc34)n2)c(OC)cc1N(C)CCN(C)C [OSIMERTINIB]
IC50 [4]: 4.5 µM
IC50 [5]: 13.1 µM

C=CC(=O)Nc1cccc(Nc2cc(-n3c(C)nnc3-c3ccc(F)cc3)ccn2)c1
IC50 [2]: 12.2 µM
IC50 [3]: 21.4 µM
IC50 [4]: 51.6 µM
IC50 [5]: 37.8 µM

C=CC(=O)Nc1cc(Nc2cc(-n3c(SC)nnc3-c3ccc(F)cc3)ccn2)ccc1N(C)CCN(C)C
IC50 [6]: 0.156 µM
IC50 [1]: 0.213 µM
IC50 [2]: 6 µM
IC50 [3]: 5.3 µM
IC50 [4]: 2.4 µM
IC50 [5]: 4.1 µM
Ratio IC50 [7]: 3
Ratio IC50 [8]: 25
Activity [9]: 93.8%
Activity [10]: 2.52%
Activity [11]: 2.77%
Activity [12]: 0.92%
Activity [13]: 91.4%
Activity [14]: 2.63%
Activity [15]: 3.86%
Activity [16]: 2.14%
Activity [17]: 32.3%
Activity [18]: 18%
Activity [19]: 39%
Activity [20]: 10.7%
Activity [21]: inactive

C=CC(=O)Nc1cc(Nc2cc(-n3c(SC)nnc3-c3ccc(F)cc3)ccn2)c(OC)cc1N1CCN(C2CCN(C)CC2)CC1
IC50 [2]: 9.9 µM
IC50 [3]: 14.9 µM
IC50 [4]: 6.49 µM
IC50 [5]: 25.5 µM

C=CC(=O)Nc1cc(Nc2cc(-n3c(SC)nnc3-c3ccc(F)cc3)ccn2)c(OC)cc1N1CCC(N2CCOCC2)CC1
IC50 [1]: 0.112 µM
IC50 [2]: 7 µM
IC50 [3]: 16.7 µM
IC50 [4]: 15.2 µM
IC50 [5]: 20.2 µM

C=CC(=O)Nc1cc(Nc2cc(-n3c(SC)nnc3-c3ccc(F)cc3)ccn2)c(OC)cc1N1CCCN(C)CC1
IC50 [6]: 0.333 µM
IC50 [1]: 0.156 µM
IC50 [2]: 10.3 µM
IC50 [3]: 8.1 µM
IC50 [4]: 6.97 µM
IC50 [5]: 43.6 µM

C=CC(=O)Nc1cc(Nc2cc(-n3c(SC)nnc3-c3ccc(F)cc3)ccn2)c(OC)cc1N1CCC(N2CCN(C)CC2)CC1
IC50 [2]: 9.3 µM
IC50 [3]: 4.5 µM
IC50 [4]: 3.6 µM
IC50 [5]: 25.6 µM

C=CC(=O)Nc1ccc(OC)c(Nc2cc(-n3c(SC)nnc3-c3ccc(F)cc3)ccn2)c1
IC50 [6]: 0.179 µM
IC50 [1]: 0.147 µM
IC50 [2]: 3.4 µM
IC50 [3]: 7.8 µM
IC50 [4]: 4.5 µM
IC50 [5]: 26.3 µM

C=CC(=O)Nc1ccc(OC)c(Nc2cc(-n3c(C)nnc3-c3ccc(F)cc3)ccn2)c1
IC50 [2]: 52.6 µM
IC50 [3]: 53.5 µM
IC50 [4]: 68.1 µM
IC50 [5]: 35.7 µM

C=CC(=O)Nc1cc(Nc2nccc(-n3cc(CN(C)C)c(-c4ccccc4)n3)n2)c(OC)cc1N1CCOCC1 [LAZERTINIB]
IC50 [6]: 0.0346 µM
IC50 [1]: 0.0027 µM
IC50 [2]: 3.6 µM
IC50 [3]: < 1 µM
IC50 [4]: 33.2 µM
IC50 [5]: > 100 µM

C=CC(=O)Nc1cc(Nc2cc(-n3c(SC)nnc3-c3ccc(F)cc3)ccn2)c(OC)cc1N1CCC(N(C)C)CC1
IC50 [2]: 11.4 µM
IC50 [3]: 13.2 µM
IC50 [4]: 8.42 µM
IC50 [5]: 39.7 µM

C=CC(=O)Nc1cc(Nc2cc(-n3c(SC)nnc3-c3ccc(F)cc3)ccn2)c(OC)cc1N(C)CCN(C)C
IC50 [6]: 0.0893 µM
IC50 [1]: 0.0431 µM
IC50 [2]: 4 µM
IC50 [3]: 5.4 µM
IC50 [4]: 2.8 µM
IC50 [5]: 18 µM
inhibition [22]: 10%
inhibition [23]: 13%
inhibition [24]: -7%
inhibition [25]: 4%
inhibition [26]: 12%
inhibition [27]: 16%
inhibition [28]: 76%
inhibition [29]: 5%
inhibition [30]: 10%
inhibition [31]: 12%
Activity [9]: 97.2%
inhibition [32]: 18%
inhibition [33]: 11%
inhibition [34]: 7%
inhibition [35]: 9%
inhibition [36]: 17%
Activity [10]: 1.28%
Activity [11]: 1.1%
Activity [12]: 0.44%
Activity [13]: 95.5%
Activity [14]: 1.69%
Activity [15]: 1.87%
Activity [16]: 0.91%
Activity [17]: 84%
Activity [18]: 4.83%
Activity [19]: 7.14%
Activity [20]: 3.99%
Activity [21]: inactive

CCC(=O)Nc1cc(Nc2cc(-n3c(SC)nnc3-c3ccc(F)cc3)ccn2)c(OC)cc1N(C)CCN(C)C
IC50 [2]: 73.9 µM
IC50 [3]: > 100 µM
IC50 [4]: 53.1 µM
IC50 [5]: > 100 µM

C=CC(=O)Nc1cccc(Nc2cc(-n3c(CCCO)nnc3-c3ccc(F)cc3)ccn2)c1
IC50 [6]: 0.196 µM
IC50 [1]: 0.143 µM
IC50 [2]: 65.9 µM
IC50 [3]: > 100 µM
IC50 [4]: 21.7 µM
IC50 [5]: > 100 µM

C=CC(=O)Nc1cc(Nc2cc(-n3c(SC)nnc3-c3ccc(F)cc3)ccn2)c(OC)cc1N1CCN(C)CC1
IC50 [2]: 14.3 µM
IC50 [3]: > 100 µM
IC50 [4]: 8.66 µM
IC50 [5]: > 100 µM

C=CC(=O)Nc1ccc(OC)c(Nc2cc(-n3c(CCCO)nnc3-c3ccc(F)cc3)ccn2)c1
IC50 [2]: 88.6 µM
IC50 [3]: > 100 µM
IC50 [4]: > 100 µM
IC50 [5]: > 100 µM
